Assay results reported in patent publication US7371534B2, “Sensitive intracellular calcium assay” (Discoverx Corporation, priority 2004, dated 2008).

Tested on: Muscarinic receptor
Experiment: Intracellular calcium assay for the effect of carbachol (Fluo-4 AM, FLIPR peak fluorescence)
Assay type: cell-based
Conditions: for change in signal based on the value at 10 nM: 10 nM to 1000 nM
Procedure: Assay is run in a standard 384-well microtiter plate with a clear bottom. Cells are seeded at a density of 30,000 cells/well, and allowed to grow overnight in standard tissue culture medium, under standard tissue culture conditions.
The next day, tissue culture supernatant is removed, and 50 μl of Calcium Reagent (Molecular Devices, Sunnyvale Calif.) is added to the wells. Plate is incubated for 1 hour at 37EC in a standard tissue culture incubator. This step loads the dye into the cells.
After the 1 hour incubation, the plate is transferred to the Molecular Device FLIPR instrument, which measures the cellular fluorescence (excitation at 488 nm /emission 515 nm filter), in one second intervals. The dye is hydrolyzed in the cell by esterases and becomes fluorescent. The instrument adds 25 microliters of carbachol (agonist for cellular calcium response) 10 seconds after the initiation of the read, and the increase in free cellular calcium resulting from carbachol stimulation is measured as an increase in cellular fluorescent signal.
The reagent: 3 μM Fluo-4 AM dye (Molecular Probes, Eugene Oreg.), 150 nM antibody in HEPES buffer (pH 7.4) containing 1% fetal bovine serum (Sigma), 0.1% Pluronic F127 (BASF) and 0.5 mM probenecid (Sigma) is added.
Instrument software identifies peak fluorescence, which is directly correlated to cellular calcium levels.

C[N+](C)(C)CCOC(N)=O [Carbachol]
change in signal based on the value at 10 nM (commercial reagent): 21%
change in signal based on the value at 10 nM (present reagents): 161%
Calcium Assay, RFU (peak fluorescence) (carbachol 10 nM, Commercial Reagents (prior art, Quencher-Ab conjugate -)): 9410 RFU
Calcium Assay, RFU (peak fluorescence) (carbachol 10 nM, DiscoveRx Reagents (present reagents, Quencher-Ab conjugate +)): 2589 RFU
Calcium Assay, RFU (peak fluorescence) (carbachol 1000 nM, Commercial Reagents (prior art, Quencher-Ab conjugate -)): 11348 RFU
Calcium Assay, RFU (peak fluorescence) (carbachol 1000 nM, DiscoveRx Reagents (present reagents, Quencher-Ab conjugate +)): 6767 RFU
difference in signal in going from 10 nM to 1000 nM (commercial reagent): 1938 RFU
change in signal in going from 10 nM to 1000 nM (present reagents): 4178 RFU
